Reference: patent publication US20120196927A1, “PROPHYLACTIC AND/OR THERAPEUTIC AGENT FOR METABOLIC SYNDROME” (priority 2009, published 2012)

Key:
C57BL/6J-ob/ob mice [1] = type: in vivo, mouse; settings: p.o. daily 5 weeks, nobiletin 200 mg/kg/day (No200), Pioglitazone 30 mg/kg/day (P30)
Excerpt: (§1) Diabetes model mice and the experimental system were as follows. As the diabetes model mice, 7 week age of male C57BL/6J-ob/ob (hereinafter, it was referred to as “ob/ob”) were purchased from Charles River Laboratories Japan Inc., and used as 10 mice/group.
For the negative control group (from FIGS. 5 to 10, it was shown as Vehicle; hereinafter, it is referred to as “solvent administration group”), 0.3% of CMC aqueous solution was administrated orally for 5 weeks in everyday at the dosage of 0.01 mL/g body weight. For the positive control group (in FIGS. 5 to 10 and hereinafter, it was referred to as “P30 administrated group”), 3 mg of Pioglitazone was suspended in 0.3% CMC aqueous solution so as to be orally administrated at the dosage of 0.01 mL/g body weight for 5 weeks in everyday (dosage: 30 mg/kg body weight/day).
For the sample ingestion group (in FIGS. 5 to 10 and hereinafter, it is referred to as “No200 ingestion group”), 20 mg of nobiletin purified as mentioned above (1) was suspended in 0.3% of carboxymethylcellulose (CMC) aqueous solution so as to be orally administrated at the dose of 0.01 mL/g body weight for 5 weeks in everyday (the dose: 200 mg/kg/day).
The body weight of mice, ingestion amount, weight of the white adipose tissue and liver weight of each mice were measured as the same as described in the example 3.

C57BL/6J-ob/ob mice [2] = assay: Diabetes model mice: fasting blood glucose level; type: in vivo, mouse; settings: nobiletin 200 mg/kg/day, Pioglitazone 30 mg/kg/day p.o.
Procedure: Two weeks or 5 weeks from the beginning of the administration, the fasting blood glucose was measured (n=10). The measurement of the blood glucose level was carried out as the same as that of the example 1.

[3] = system: GLUT4, Adiponectin, TNF-α, MCP-1, IL-6, PPARγ, aP2, LPL, Perilipin genes; assay: Diabetes model mice: mRNA expression in the white adipose tissue (real time RT-PCR); type: in vivo, mouse; settings: ob/ob mice, Vehicle = 1.00, nobiletin 200 mg/kg/day, Pioglitazone 30 mg/kg/day, 5 weeks
Procedure: The effects by nobiletin ingestion to the mRNA expression in the white adipose tissue and the liver were measured (n=10).
After the termination of the administration period for 5 weeks, mRNA expression levels of respective genes shown in the table 10 were determined by using real time RT-PCR method. The real time RT-PCR was carried out according to an operation manual provided by ISOGEN (NIPPON GENE CO., LTD); RNA was extracted from the white adipose tissue and the liver. Next, cDNA was prepared from using 1 μg of RNA by using Reverse Transcription System kit (Promega Corp., USA). Next, suitable primers for the above-mentioned genes were prepared according to the operation manual provided by FastStart universal SYBR (a registered trademark) Greenmaster PCR KIT agent (Roche Diagnostics K. K., Germany).
Real time PCR system 7700HT (Applied Biosytems, USA) was used for the determination to carry out the real time PCR by using the cDNAs as templates. Each reaction conditions were set according to the manual of the PCR KIT. Quantitative analysis of the RNA amount was carried out based on comparative Ct method by using glyceraldehyde 3-phosphate dehydrogenase (GAPDH) as the standard reference.

male C57BL/6 mice = assay: Nobiletin, obesity-induced mice: tissue weight; type: in vivo, mouse; settings: HFD obesity-induced mice
Excerpt: Six weeks age of male C57BL/6 mice were preliminary reared for 1 week (−9 to −8 week); then classified into 4 groups (n=9 in each group). LFD was given to one group and HFD was given to other 3 groups for 8 weeks (−8 to +5 week). From 8 weeks (15 week age) to 13 weeks, each group was given the following agents per os for 5 weeks in everyday. In below, the LFD administration group was defined that they ingested LFD; the HFD administration group is defined that they ingested the HFD without nobiletin. The compositions of the LFD and HFD are the same as those used in the Example 3.
To both of the LFD administration group and the HFD administration group, 0.3% CMC aqueous solution was given at the amount of 0.01 mL/g body weight. […] The group to which nobiletin was given at the amount of 10 mg/kg/day was referred to as “No10 administration group; the abbreviated as HFD+No 10” and another group to which nobiletin was given at the amount of 100 mg/kg/day was referred to as “No 100 administration group; abbreviated as HFD+No 100”. The schedule of the feed ingestion and administration of the agent for the above-mentioned 4 groups were schematically shown in FIG. 12A.

[4] = system: SREBP1-c, SCD1, FAS, ACC1, DGAT1, GLUT4, Adiponectin, TNF-α, MCP-1, PPARγ genes; assay: Nobiletin, obesity-induced mice: gene expression in the white adipose tissue (mRNA); type: in vivo, mouse
Procedure: mRNA expression level was determined by using real time PCR as follows. According to the direction attached with ISOGEN (Nippon Gene Co., Ltd), RNA was extracted from white adipose tissue, liver, and skeletal muscle. Next, cDNA was prepared from 1 μg of RNA by using Reverse Transcription System kit (Promega, USA). Subsequently, according to the direction attached with FastStart universal SYBR (Registered trademark) Greenmaster PCR kit reagent (Roche Diagnostics, Germany), primers suitable for each intended gene in the following experiments were synthesized. Real time PCR system 7700 HT (Applied Biosytems, USA) was used for the measurement, the cDNA was used as templates for the real time PCR. Reaction conditions were followed to those for the PCR kit reagents. Quantitative analysis of RNA level was performed by Comparison Ct method, using glyceraldehyde 3-phosphate dehydrogenase (GAPDH) as the standard.
The expression of mouse lipid biosynthesis-related gene and other gene shown in the following table 24 after obesity induction by ingesting the high fat diet were determined as mRNA levels to study the effects of nobiletin to these gene expression (n=9). The expression levels of each gene were shown in the ratio when those of the HFD were 1.

C57BL/6J-ob/ob mice [5] = settings: nobiletin 200 mg/kg/day, Pioglitazone 30 mg/kg/day, 5 weeks
Excerpt: as §1
For the negative control group (from FIGS. 5 to 10, it was shown as Vehicle; hereinafter, it is referred to as “solvent administration group”), 0.3% of CMC aqueous solution was administrated orally for 5 weeks in everyday at the dosage of 0.01 mL/g body weight. For the positive control group (in FIGS. 5 to 10 and hereinafter, it was referred to as “P30 administrated group”), 3 mg of Pioglitazone was suspended in 0.3% CMC aqueous solution so as to be orally administrated at the dosage of 0.01 mL/g body weight for 5 weeks in everyday (dosage: 30 mg/kg body weight/day). […]
The blood insulin level was measured as described in below. […] As lipids in plasma, concentrations of neutral fat (TG) and total cholesterol (T-CHO) were measured. Plasma insulin level was measured by using rebis insulin mouse (type U) (Shibayagi Co. Ltd.) based on the enzyme-immunoassay.

[6] = nobiletin 10 mg/kg/day p.o. 5 weeks
[7] = nobiletin 100 mg/kg/day p.o. 5 weeks
[8] = ratio HFD = 1, nobiletin 10 mg/kg/day p.o. 5 weeks
[9] = ratio HFD = 1, nobiletin 100 mg/kg/day p.o. 5 weeks

COc1ccc(-c2cc(=O)c3c(OC)c(OC)c(OC)c(OC)c3o2)cc1OC [nobiletin]
Gained body weight (C57BL/6J-ob/ob mice [1]): 9.33 ± 0.49 g | white adipose tissue (C57BL/6J-ob/ob mice [1]): 5.69 ± 0.17 g | Blood glucose level (fasting) (C57BL/6J-ob/ob mice [2]; 0 week after administration): 175.61 ± 11.44 mg/dL | Blood glucose level (fasting) (C57BL/6J-ob/ob mice [2]; 2 weeks after administration): 169.22 ± 13.22 mg/dL | Blood glucose level (fasting) (C57BL/6J-ob/ob mice [2]; 5 weeks after administration): 148.46 ± 7.56 mg/dL | Gene expression level (ratio), [W]Adiponectin [3]: 1.54 ± 0.04 | Gene expression level (ratio), [W]GLUT4 [3]: 1.88 ± 0.12 | Gene expression level (ratio), [W]IL-6 [3]: 0.55 ± 0.03 | Gene expression level (ratio), [W]LPL [3]: 1.50 ± 0.18 | Gene expression level (ratio), [W]MCP-1 [3]: 0.64 ± 0.02 | Gene expression level (ratio), [W]PPARγ [3]: 1.79 ± 0.02 | Gene expression level (ratio), [W]Perilipin [3]: 1.61 ± 0.17 | Gene expression level (ratio), [W]TNF-α [3]: 0.80 ± 0.048 | Gene expression level (ratio), [W]aP2 [3]: 1.10 ± 0.01 | Tissue Weight, Kidney (male C57BL/6 mice; [6]): 0.34 ± 0.02 g/100 g of body weight | Tissue Weight, Liver (male C57BL/6 mice; [6]): 1.28 ± 0.08 g/100 g of body weight | Tissue Weight, White adipose tissue (male C57BL/6 mice; [6]): 1.96 ± 0.28 g/100 g of body weight | Tissue Weight, White adipose tissue [Periphery of genitals] (male C57BL/6 mice; [6]): 1.23 ± 0.19 g/100 g of body weight | Tissue Weight, White adipose tissue [Periphery of intestine] (male C57BL/6 mice; [6]): 0.27 ± 0.04 g/100 g of body weight | Tissue Weight, White adipose tissue [Periphery of kidney] (male C57BL/6 mice; [6]): 0.47 ± 0.07 g/100 g of body weight | Tissue Weight, Kidney (male C57BL/6 mice; [7]): 0.35 ± 0.01 g/100 g of body weight | Tissue Weight, Liver (male C57BL/6 mice; [7]): 1.40 ± 0.04 g/100 g of body weight | Tissue Weight, White adipose tissue (male C57BL/6 mice; [7]): 1.52 ± 0.15 g/100 g of body weight | Tissue Weight, White adipose tissue [Periphery of genitals] (male C57BL/6 mice; [7]): 0.92 ± 0.09 g/100 g of body weight | Tissue Weight, White adipose tissue [Periphery of intestine] (male C57BL/6 mice; [7]): 0.20 ± 0.02 g/100 g of body weight | Tissue Weight, White adipose tissue [Periphery of kidney] (male C57BL/6 mice; [7]): 0.36 ± 0.03 g/100 g of body weight | Expression level, ACC1 [4, 8]: 2.06 ± 0.05 | Expression level, Adiponectin [4, 8]: 1.97 ± 0.09 | Expression level, DGAT1 [4, 8]: 2.17 ± 0.19 | Expression level, FAS [4, 8]: 2.78 ± 0.06 | Expression level, GLUT4 [4, 8]: 1.34 ± 0.09 | Expression level, MCP-1 [4, 8]: 0.44 ± 0.02 | Expression level, PPARγ [4, 8]: 1.61 ± 0.11 | Expression level, SCD1 [4, 8]: 2.30 ± 0.06 | Expression level, SREBP1-c [4, 8]: 2.15 ± 0.21 | Expression level, TNF-α [4, 8]: 1.06 ± 0.12 | Expression level, ACC1 [4, 9]: 1.69 ± 0.07 | Expression level, Adiponectin [4, 9]: 2.02 ± 0.08 | Expression level, DGAT1 [4, 9]: 1.80 ± 0.14 | Expression level, FAS [4, 9]: 2.50 ± 0.03 | Expression level, GLUT4 [4, 9]: 1.35 ± 0.07 | Expression level, MCP-1 [4, 9]: 0.35 ± 0.01 | Expression level, PPARγ [4, 9]: 1.36 ± 0.05 | Expression level, SCD1 [4, 9]: 2.95 ± 0.17 | Expression level, SREBP1-c [4, 9]: 1.53 ± 0.20 | Expression level, TNF-α [4, 9]: 0.58 ± 0.14 | Adiponectin level in blood, times higher than solvent administration group (C57BL/6J-ob/ob mice [5]): not so high
